Key:
[1] = oral delivery, animal studies; cited from earlier work
[2] = regardless of the route of administration; cited from earlier work
[3] = molecular target: prostaglandin I2 (PGI2) receptor (IP) (Homo sapiens, UniProt P43119); assay: IP receptor cAMP agonist assay (CHO-K1 cells); format: cell-based; conditions: relative to treprostinil EC50 values, * partial agonists or ambiguous dose-response curves
Protocol: (§1) Cyclic AMP assay kit: Multiscreen™ TR-FRET cAMP 1.0 No Wash Assay Kit (Multispan, Inc.)
(§2) Cells were thawed from frozen cells and resuspended in assay buffer at desired concentrations. cAMP or Calcium assays were performed according to the manufacturer's protocol using Multiscreen™ TR-FRET cAMP 1.0 No Wash Assay Kit or Multiscreen™ Calcium 1.0 No Wash Kit.
(§3) Gas Cyclic AMP (cAMP) Assay: In agonist mode testing, cells were seeded in a 384-well plate at an appropriate density and then were treated with compounds and incubated at 37° C. for 20 minutes. The reaction was terminated by […] trFluor™ Eu-labeled cAMP and trFluor™ 650-labeled anti-cAMP antibody in lysis buffer. […] All testing wells contained 0.1% DMSO in the final concentrations.
(§4) Data in graphs are represented in Mean±SD. Dose-dependent responses were fitted with sigmoidal dose-response curves allowing variable slopes using GraphPad Prism version 6 (Graphpad Prism).
(§5) These studies used cell lines overexpressing either human IP, EP2 or DP1, or EP1 receptors, and following incubation with varying concentrations of compounds, cAMP levels were measured using Fluorescence Resonance Energy Transfer (FRET).

[4] = Hydrolysis of prodrugs to treprostinil at pH 6, 7, 8 and 40 C; format: physicochemical
Excerpt: Tables 24, 25 and 26 present data for hydrolysis of selected treprostinil prodrugs at pH 6, 7 and 8, respectively, and 40 C.

PGE2 receptor 1 (EP1) = molecular target: T1, PGE2 receptor 1 (EP1) (Homo sapiens, UniProt P34995); assay: EP1 receptor calcium agonist assay (HEK293T cells); format: cell-based; conditions: Table 22; relative to treprostinil EC50 values; * partial agonists or ambiguous dose-response curves
T1 sequence (P34995 1-402): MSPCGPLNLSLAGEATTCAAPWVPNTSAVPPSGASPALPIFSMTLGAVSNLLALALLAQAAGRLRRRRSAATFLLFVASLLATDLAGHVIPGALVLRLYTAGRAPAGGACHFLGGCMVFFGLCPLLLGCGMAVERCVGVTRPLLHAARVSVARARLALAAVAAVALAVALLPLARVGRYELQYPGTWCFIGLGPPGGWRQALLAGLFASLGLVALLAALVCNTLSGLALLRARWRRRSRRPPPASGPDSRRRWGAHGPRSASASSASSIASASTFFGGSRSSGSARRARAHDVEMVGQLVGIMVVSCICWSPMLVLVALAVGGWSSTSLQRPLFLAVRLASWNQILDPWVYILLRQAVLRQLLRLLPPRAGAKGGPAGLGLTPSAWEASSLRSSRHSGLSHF
Protocol: Calcium assay kit: Multiscreen™ Calcium 1.0 No Wash Kit (Multispan, Inc., Cat #MSCA01-1)
• EP1 Calcium and DP1 cAMP Assays: HBSS plus 20 mM HEPES • EP2 and IP1 cAMP Assays: 1 mM IBMX in HBSS plus 20 mM HEPES Instruments: FlexStation III (Molecular Devices) and FLIPR 384 (Molecular Devices)
as §2
Calcium Assay: Cells were seeded in a 384-well plate at an appropriate density. The calcium assay was conducted according to the manufacturer's protocols (Multiscreen Calcium 1.0 No Wash Assay Kit). The calcium dye loading buffer was added to the cells and incubated for 1 hour at 37° C. For agonist mode, cells were injected with Iloprost control agonist or test compound by FLIPR and calcium mobilization was monitored for 180 seconds with compound injected into the wells at the 19th second. Fluorescent emissions were read at 525 nm with excitation at 490 nm in a FLIPR 384 instrument (Molecular Devices).
Calcium Assay: Calcium assay results are expressed as “RFU” as defined in figure below. Data are represented in Mean±SEM. Dose-response curves were fitted using “Sigmoidal dose-response (variable slope)” function in GraphPad Prism 6. EC50 values were calculated based on the fitted curves.
Prostaglandin receptor activity assessments with treprostinil and treprostinil analogues have been conducted, and a historical, positive control agonist for these receptors, iloprost (for IP, EP2 and EP1) or PGD2 (for DP1), was also included. These studies used cell lines overexpressing either human IP, EP2 or DP1, or EP1 receptors, and following incubation with varying concentrations of compounds, cAMP levels were measured using Fluorescence Resonance Energy Transfer (FRET). The 665/620 (acceptor/donor emission signals) ratio is inversely proportional to the concentration of cAMP.

[5] = molecular target: prostaglandin E2 (PGE2) receptor 2 (EP2) (Homo sapiens, UniProt P43116); assay: EP2 receptor cAMP agonist assay (HEK293T cells); format: cell-based; conditions: for EP2 Relative to Tre: Table 22, relative to treprostinil EC50 values, * partial agonists or ambiguous dose-response curves
prostaglandin E2 (PGE2) receptor 2 (EP2), sequence (P43116 whole entry): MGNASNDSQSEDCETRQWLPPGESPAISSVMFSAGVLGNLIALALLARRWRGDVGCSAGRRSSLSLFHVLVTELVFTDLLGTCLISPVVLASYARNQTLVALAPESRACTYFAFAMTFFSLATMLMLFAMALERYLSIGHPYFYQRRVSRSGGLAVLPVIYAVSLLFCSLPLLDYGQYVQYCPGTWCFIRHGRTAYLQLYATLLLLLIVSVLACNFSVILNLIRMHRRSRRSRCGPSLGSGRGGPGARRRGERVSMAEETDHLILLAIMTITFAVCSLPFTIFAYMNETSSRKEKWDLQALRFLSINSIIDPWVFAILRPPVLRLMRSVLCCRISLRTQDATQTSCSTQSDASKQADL
Protocol: as §1, §2, §3, §4, §5

[6] = molecular target: T2, prostaglandin D2 (PGD2) receptor 1 (DP1) (Homo sapiens, UniProt Q13258); assay: DP1 receptor cAMP agonist assay (HEK293T cells); format: cell-based; conditions: for DP1 Relative to Tre: relative to treprostinil EC50 values, * partial agonists or ambiguous dose-response curves
T2 sequence (Q13258 1-359): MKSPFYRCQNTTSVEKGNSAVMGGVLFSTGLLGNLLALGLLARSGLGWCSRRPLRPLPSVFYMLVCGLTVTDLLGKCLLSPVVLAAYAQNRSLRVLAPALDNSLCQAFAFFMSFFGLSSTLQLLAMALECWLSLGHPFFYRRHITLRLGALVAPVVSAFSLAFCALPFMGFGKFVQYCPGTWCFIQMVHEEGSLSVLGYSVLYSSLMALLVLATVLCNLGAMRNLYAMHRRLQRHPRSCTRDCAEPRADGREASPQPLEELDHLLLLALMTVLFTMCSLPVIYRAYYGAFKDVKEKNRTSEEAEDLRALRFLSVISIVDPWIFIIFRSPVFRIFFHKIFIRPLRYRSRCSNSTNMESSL
Protocol: as §1, §2, §3, §4, §5

[7] = Stability in human subcutaneous skin homogenate

prostaglandin I2 (PGI2) receptor (IP), sequence (P43119 whole entry): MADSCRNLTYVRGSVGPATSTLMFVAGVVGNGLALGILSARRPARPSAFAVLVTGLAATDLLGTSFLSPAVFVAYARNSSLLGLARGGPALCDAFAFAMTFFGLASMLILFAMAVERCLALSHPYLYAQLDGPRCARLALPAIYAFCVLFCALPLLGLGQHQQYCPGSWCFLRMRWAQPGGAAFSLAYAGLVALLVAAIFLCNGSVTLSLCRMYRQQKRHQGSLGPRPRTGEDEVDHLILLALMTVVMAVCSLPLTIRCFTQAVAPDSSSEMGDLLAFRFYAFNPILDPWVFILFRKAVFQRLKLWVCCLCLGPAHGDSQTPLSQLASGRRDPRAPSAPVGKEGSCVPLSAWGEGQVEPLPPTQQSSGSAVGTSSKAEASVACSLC

| IP Relative to Tre ([3]; Table 22) | Hydrolysis to treprostinil, % Area, t = 1 week ([4]; pH 6, 40 C.) [% Area] | Hydrolysis to treprostinil, % Area, t = 2 weeks ([4]; pH 6, 40 C.) [% Area] | Hydrolysis to treprostinil, % Area, t = 3 weeks ([4]; pH 6, 40 C.) [% Area] | Hydrolysis to treprostinil, % Area, t = 1 week ([4]; pH 7, 40 C.) [% Area] | Hydrolysis to treprostinil, % Area, t = 2 weeks ([4]; pH 7, 40 C.) [% Area] | Hydrolysis to treprostinil, % Area, t = 3 weeks ([4]; pH 7, 40 C.) [% Area] | Hydrolysis to treprostinil, % Area, t = 1 week ([4]; pH 8, 40 C.) [% Area] | Hydrolysis to treprostinil, % Area, t = 2 weeks ([4]; pH 8, 40 C.) [% Area] | Hydrolysis to treprostinil, % Area, t = 3 weeks ([4]; pH 8, 40 C.) [% Area] | EP1 Relative to Tre (PGE2 receptor 1 (EP1)) | EP2 Relative to Tre [5] | DP1 Relative to Tre ([6]; Table 22) [x] | Molecule | further results |
| --- | --- | --- | --- | --- | --- | --- | --- | --- | --- | --- | --- | --- | --- | --- |
| 1470x* | 0.00 | 0.00 | 0.00 | 0.00 | 0.00 | 0.00 | 0.00 | 0.00 | 0.00 |  | 236x* | 1897 | CCCCCC(CCC1C(O)CC2Cc3c(cccc3OCC(=O)O)CC21)OC(=O)C12CC3CC(CC(C3)C1)C2 (stereo not drawn) [Prodrug LXIX] |  |
| 148x | 0.00 | 0.00 | 0.00 | 0.00 | 0.00 | 0.00 | 0.00 | 0.23 | 0.27 |  | 34x* | 184 | CCCCCC(CCC1C(O)CC2Cc3c(cccc3OCC(=O)O)CC21)OC(=O)C(C)C (stereo not drawn) [Prodrug LXVII] |  |
| 535x |  |  |  |  |  |  |  |  |  | 30x | 11x | 18 | CCCCC[C@H](O)CC[C@@H]1[C@H]2Cc3cccc(OCC(=O)OCC)c3C[C@H]2C[C@H]1O [Treprostinil ethyl ester, reference compound] |  |
| 599x | 0.13 | 0.29 | 0.39 | 0.96 | 1.9 | 2.7 | 6.0 | 11.4 | 16.9 | 64x* | 187x* | 89 | CCCCCC(CCC1C(O)CC2Cc3c(cccc3OCC(=O)O)CC21)OC(=O)COc1ccccc1 (stereo not drawn) [Prodrug LXV] |  |
| 208x | 0.00 | 0.00 | 0.00 | 0.00 | 0.00 | 0.00 | 0.00 | 0.00 | 0.00 |  |  | 217 | treprostinil diphosphate [Prodrug LXXIII] | IP Relative to Tre ([3]; Table 23): 208x; Activity at the EP2 receptor compared to treprostinil ([5]; summary of findings): inactive; AUC ([7]; human): 2.744 µmol·min/L; Mono AUC (treprostinil formed) ([7]; human): 2.744 µmol·min/L; Percent Remaining (Avg, n = 3) 0 min ([7]; pooled human skin homogenate, 1 μM, 37° C., 0 min): 100%; Percent Remaining (Avg, n = 3) 30 min ([7]; pooled human skin homogenate, 1 μM, 37° C., 30 min): 86.2%; Percent Remaining (Avg, n = 3) 60 min ([7]; pooled human skin homogenate, 1 μM, 37° C., 60 min): 71.2%; Percent Remaining (Avg, n = 3) 120 min ([7]; pooled human skin homogenate, 1 μM, 37° C., 120 min): 64.0%; DP1 Relative to Tre ([6]; Table 23): 217x; Activity at the DP1 receptor compared to treprostinil ([6]; summary of findings): several hundred-fold less active |

Continued, molecule first:

| Molecule | IP Relative to Tre ([3]; Table 22) | Hydrolysis to treprostinil, % Area, t = 1 week ([4]; pH 6, 40 C.) [% Area] | Hydrolysis to treprostinil, % Area, t = 2 weeks ([4]; pH 6, 40 C.) [% Area] | Hydrolysis to treprostinil, % Area, t = 3 weeks ([4]; pH 6, 40 C.) [% Area] | Hydrolysis to treprostinil, % Area, t = 1 week ([4]; pH 7, 40 C.) [% Area] | Hydrolysis to treprostinil, % Area, t = 2 weeks ([4]; pH 7, 40 C.) [% Area] | Hydrolysis to treprostinil, % Area, t = 3 weeks ([4]; pH 7, 40 C.) [% Area] | Hydrolysis to treprostinil, % Area, t = 1 week ([4]; pH 8, 40 C.) [% Area] | Hydrolysis to treprostinil, % Area, t = 2 weeks ([4]; pH 8, 40 C.) [% Area] | Hydrolysis to treprostinil, % Area, t = 3 weeks ([4]; pH 8, 40 C.) [% Area] | EP1 Relative to Tre (PGE2 receptor 1 (EP1)) | EP2 Relative to Tre [5] | DP1 Relative to Tre ([6]; Table 22) [x] | further results |
| --- | --- | --- | --- | --- | --- | --- | --- | --- | --- | --- | --- | --- | --- | --- |
| CCCCC[C@H](O)CC[C@@H]1[C@H]2Cc3cccc(OCC(=O)O)c3C[C@H]2C[C@H]1O [Treprostinil] |  |  |  |  |  |  |  |  |  |  |  |  |  | first-pass effect [1]: approximately 60%; half-life once absorbed [2]: about 1 hour |
| CCCCCC(CCC1C(O)CC2Cc3c(cccc3OCC(=O)O)CC21)OC(=O)COc1ccc(OC(F)(F)F)cc1 (stereo not drawn) [Prodrug LXIV] | 162x* | 0.72 | 1.2 | 1.5 | 0.46 | 0.93 | 1.2 | 1.8 | 3.9 | 5.8 | 0.03x* | 24x* | 38 |  |
| CCCCCC(CCC1C(O)CC2Cc3c(cccc3OCC(=O)O)CC21)OCOC(=O)C(C)(C)C (stereo not drawn) [Prodrug LII] | 527x |  |  |  |  |  |  |  |  |  | 133x* | 26x | 73 |  |
